In publication PMC7378375, “High-Throughput Screening of a Functional Human CXCL12-CXCR4 Signaling Axis in a Genetically Modified S. cerevisiae: Discovery of a Novel Up-Regulator of CXCR4 Activity” (Frontiers in Molecular Biosciences, 2020):

Molecular target: CXCL12 (Homo sapiens, UniProt P48061)
Test: 1H-15N HSQC NMR titration of […]-CXCL12 (global fit of eight resonances, pH […]); supported by SEC-MALS
Assay type: binding

CXCL12, sequence (P48061 22-88): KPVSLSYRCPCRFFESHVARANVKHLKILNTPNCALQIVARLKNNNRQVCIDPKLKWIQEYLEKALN

Question: Which Kd does the source give for `O=C(O)c1ccccc1OP(=O)(O)O` [fosfosal, 2-(phosphonooxy) benzoic acid] here?
Answer: 147 µM
